Laboratory results published in PubChem BioAssay (NCI).
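Five compound concentrations were applied to cells in 96-well plates for 48 hours; endpoints were derived by simple linear interpolation of the resulting dose-response curve. At the TGI there is no net growth.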

Assays:
Experiment in all cases: growth of human tumour cells (NCI), 48 h
[1] = test system: MOLT-4 leukemia
[2] = test system: UO-31 renal
[3] = test system: OVCAR-5 ovarian
[4] = test system: SK-MEL-2 melanoma
[5] = test system: NCI-H522 lung
[6] = test system: MCF7 breast
[7] = test system: CCRF-CEM leukemia
[8] = test system: SF-295 CNS
[9] = test system: DU-145 prostate
[10] = test system: UACC-257 melanoma
[11] = test system: SNB-75 CNS
[12] = test system: CAKI-1 renal
[13] = test system: EKVX NSCLC
[14] = test system: KM12 colon
[15] = test system: OVCAR-8 ovarian
[16] = test system: NCI-H23 lung
[17] = test system: HOP-92 NSCLC
[18] = test system: HOP-62 NSCLC
[19] = test system: UACC-62 melanoma
[20] = test system: SF-539 CNS
[21] = test system: HCT-15 colon
[22] = test system: TK-10 renal
[23] = test system: T-47D breast
[24] = test system: NCI-H460 lung
[25] = test system: SW-620 colon
[26] = test system: NCI-H226 lung
[27] = test system: 786-0 renal
[28] = test system: HS 578T breast
[29] = test system: HT29 colon
[30] = test system: SN12C renal
[31] = test system: PC-3 prostate
[32] = test system: MDA-N
[33] = test system: RPMI-8226 leukemia
[34] = test system: SR leukemia
[35] = test system: OVCAR-3 ovarian
[36] = test system: BT-549 breast
[37] = test system: LOX IMVI melanoma
[38] = test system: A549 NSCLC
[39] = test system: COLO 205 colon
[40] = test system: RXF 393 renal
[41] = test system: A498 renal
[42] = test system: K-562 leukemia
[43] = test system: SK-MEL-28 melanoma
[44] = test system: SF-268 CNS
[45] = test system: M14 melanoma
[46] = test system: MDA-MB-231 breast
[47] = test system: ACHN renal
[48] = test system: IGROV1 ovarian
[49] = test system: SNB-19 CNS
[50] = test system: HCT-116 colon
[51] = test system: SK-MEL-5 melanoma
[52] = test system: MDA-MB-435
[53] = test system: HCC-2998 colon
[54] = test system: NCI/ADR-RES ovarian
[55] = test system: HL-60(TB) leukemia
[56] = test system: SK-OV-3 ovarian
[57] = test system: U251 CNS
[58] = test system: OVCAR-4 ovarian

O=C1C(Cl)=C(N(C(=O)c2ccccc2)C(=O)c2ccccc2)C(=O)c2ccccc21
TGI [1]: > 100 µM | TGI [2]: 15.7 µM | TGI [3]: 34.3 µM | TGI [4]: 43.9 µM | TGI [5]: 43.7 µM | TGI [6]: 24 µM | TGI [7]: 18.6 µM | TGI [8]: > 100 µM | TGI [9]: > 100 µM | TGI [10]: 28.7 µM | TGI [11]: 24 µM | TGI [12]: 23.3 µM | TGI [13]: > 100 µM | TGI [14]: 15.7 µM | TGI [15]: > 100 µM | TGI [16]: 31.1 µM | TGI [17]: 34.8 µM | TGI [18]: > 100 µM | TGI [19]: 19.8 µM | TGI [20]: 19.6 µM | TGI [21]: 9 µM | TGI [22]: 37.8 µM | TGI [23]: 32.3 µM | TGI [24]: 28.5 µM | TGI [25]: 24.3 µM | TGI [26]: > 100 µM | TGI [27]: 34.7 µM | TGI [28]: 98 µM | TGI [29]: 69.3 µM | TGI [30]: 61.3 µM | TGI [31]: > 100 µM | TGI [32]: 25.8 µM | TGI [33]: 8.87 µM | TGI [34]: 81.2 µM | TGI [35]: 22.9 µM | TGI [36]: 21.7 µM | TGI [37]: > 100 µM | TGI [38]: > 100 µM | TGI [39]: 31 µM | TGI [40]: 15.8 µM | TGI [41]: > 100 µM | TGI [42]: 20.6 µM | TGI [43]: 40.2 µM | TGI [44]: 21.7 µM | TGI [45]: > 100 µM | TGI [46]: > 100 µM | TGI [47]: 13.9 µM | TGI [48]: > 100 µM | TGI [49]: > 100 µM | TGI [50]: 17.6 µM | TGI [51]: 12.4 µM | TGI [52]: 32.4 µM | TGI [53]: 37.4 µM | TGI [54]: > 100 µM | TGI [55]: 3.15 µM | TGI [56]: > 100 µM | TGI [57]: > 100 µM

NC(CCOCCP(=O)(O)O)C(=O)O (stereo unspecified)
TGI [1]: > 100 µM | TGI [2]: > 100 µM | TGI [3]: > 100 µM | TGI [4]: > 100 µM | TGI [5]: > 100 µM | TGI [6]: > 100 µM | TGI [7]: > 100 µM | TGI [8]: > 100 µM | TGI [9]: > 100 µM | TGI [10]: > 100 µM | TGI [11]: > 100 µM | TGI [12]: > 100 µM | TGI [13]: > 100 µM | TGI [14]: > 100 µM | TGI [15]: > 100 µM | TGI [16]: > 100 µM | TGI [17]: > 100 µM | TGI [19]: > 100 µM | TGI [20]: > 100 µM | TGI [21]: > 100 µM | TGI [22]: > 100 µM | TGI [23]: > 100 µM | TGI [24]: > 100 µM | TGI [25]: > 100 µM | TGI [28]: > 100 µM | TGI [29]: > 100 µM | TGI [30]: > 100 µM | TGI [31]: > 100 µM | TGI [32]: > 100 µM | TGI [33]: > 100 µM | TGI [58]: > 100 µM | TGI [34]: > 100 µM | TGI [35]: > 100 µM | TGI [36]: > 100 µM | TGI [37]: > 100 µM | TGI [38]: > 100 µM | TGI [39]: > 100 µM | TGI [40]: > 100 µM | TGI [42]: > 100 µM | TGI [43]: > 100 µM | TGI [44]: > 100 µM | TGI [45]: > 100 µM | TGI [46]: > 100 µM | TGI [47]: > 100 µM | TGI [48]: > 100 µM | TGI [49]: > 100 µM | TGI [50]: > 100 µM | TGI [51]: > 100 µM | TGI [52]: > 100 µM | TGI [53]: > 100 µM | TGI [54]: > 100 µM | TGI [55]: > 100 µM | TGI [56]: > 100 µM | TGI [57]: > 100 µM
